Assay results reported in article PMC10176470, “Engaging a Non-catalytic Cysteine Residue Drives Potent and Selective Inhibition of Caspase-6” (Journal of the American Chemical Society, 2023).

Columns and labels:
Test in all cases: SILAC proteomics / in-gel fluorescence, competition of probe 13-t labeling by 3a
[1] = molecular target: proteins of HEK293T cells transiently overexpressing caspase-6 (Homo sapiens, UniProt P62917); settings: Comp; protein RPL8 P62917
Experimental: (§1) Cells were lysed, and heavy and light SILAC lysates were combined in a 1:1 ratio and subjected to CuAAC reaction with azido-biotin to biotinylate probe-labeled proteins for subsequent capture on streptavidin-coated beads. Bead-bound proteins were split for analysis by in-gel fluorescence and tryptic digestion on-bead for LC–MS/MS analysis.
(§2) SILAC labeling and alkyne probe treatment: HEK293T cells were seeded into 8x 15 cm plates at
(§3) a density of 500,000 cells/plate. 4 of these plates were grown in light SILAC DMEM and 4 were
(§4) grown in heavy SILAC DMEM all containing 10% FBS and 4.5g/L glucose. The next day, all 8
(§5) plates were transfected with a pCMV6-Entry plasmid coding for caspase-6-myc-DDK lacking the
(§6) prodomain. After 24 hours, media was replaced with fresh SILAC growth media containing 4.5 g/L
(§7) glucose and 3% FBS. 24 hours later the plates were treated with probe and inhibitor for 1 hours as
(§8) follows: 2 of the light plates were treated with vehicle, 2 light plates and 2 heavy plates treated with
(§9) for 60 minutes. After treatment, media was removed, and cells were washed with 15 mL PBS for 5
(§10) minutes. Cells were then harvested by scraping in cold PBS and lysed in the presence of Roche
(§11) complete protease inhibitors. Lysates were clarified by centrifugation at 10,000xg for 10 minutes and
(§12) the protein in the supernatant was quantified by BCA assay.
(§13) Proteomics assay: 1 mg of each lysate was diluted to 2mg/ml in PBS with Roche complete protease
(§14) inhibitors. To this was added 0.1 mM biotin-azide, 1 mM tris(2-carboxyethyl)phosphine (TCEP), 0.1
(§15) mM Tris((1-benzyl-4-triazolyl)methyl)amine (TBTA) ligand, and 1 mM CuSO4 in a final volume of
(§16) 0.5 mL. The reaction was incubated at room temperature for 1 hour and was vortexed every 15
(§17) minutes. After 1 hour, proteins are precipitated and are pelleted by centrifuging at 16,000xg for 4
(§18) min at 4 °C. The supernatants were discarded, and the pellets were solubilized with 0.5 mL cold
(§19) The cold methanol wash was then repeated, and the washed
(§20) pellets were resuspended in 1 mL of 1.2% SDS and sonicated until clear. The samples were heat
(§21) denatured at 80-90 °C for 5 minutes and any insoluble particles were removed by centrifugation at
(§22) 6,500xg for 5 minutes. The 1 mL supernatant was transferred to a 15 mL conical tubes containing 5
(§23) mL of PBS and 150 µL of washed neutravidin beads were added. The samples were incubated for 2
(§24) hours at 4 °C while rotating, at which point the samples were warmed to resolubilize any precipitated
(§25) SDS. The beads were pelleted by centrifugation at 1400xg for 3 min and washed for 10 minutes with
(§26) the following solutions: 2x 1% NP-40, 2x PBS + 1 M NaCl, and 2x 50 mM ammonium bicarbonate
(§27) (ABC) + 2 M urea. The beads were then transferred to a 1.5 mL microcentrifuge tube using 2x250
(§28) µL 100 mM Tris pH 8.0 + 4 M Guanidium hydrochloride (final volume 500 µL).

[2] = molecular target: proteins of HEK293T cells transiently overexpressing caspase-6 (Homo sapiens, UniProt P23526); settings: Comp; protein AHCY P23526
Experimental: as §1, §2, §3, §4, §5, §6, §7, §8, §9, §10, §11, §12, §13, §14, §15, §16, §17, §18, §19, §20, §21, §22, §23, §24, §25, §26, §27, §28

[3] = molecular target: proteins of HEK293T cells transiently overexpressing caspase-6 (Homo sapiens, UniProt P40939); settings: Comp; protein HADHA P40939
Experimental: as §1, §2, §3, §4, §5, §6, §7, §8, §9, §10, §11, §12, §13, §14, §15, §16, §17, §18, §19, §20, §21, §22, §23, §24, §25, §26, §27, §28

[4] = molecular target: proteins of HEK293T cells transiently overexpressing caspase-6 (Homo sapiens, UniProt P05141); settings: Comp; protein SLC25A5 P05141
Experimental: as §1, §2, §3, §4, §5, §6, §7, §8, §9, §10, §11, §12, §13, §14, §15, §16, §17, §18, §19, §20, §21, §22, §23, §24, §25, §26, §27, §28

[5] = molecular target: T1, proteins of HEK293T cells transiently overexpressing caspase-6 (Homo sapiens, UniProt O60506)
T1 sequence (O60506 1-623): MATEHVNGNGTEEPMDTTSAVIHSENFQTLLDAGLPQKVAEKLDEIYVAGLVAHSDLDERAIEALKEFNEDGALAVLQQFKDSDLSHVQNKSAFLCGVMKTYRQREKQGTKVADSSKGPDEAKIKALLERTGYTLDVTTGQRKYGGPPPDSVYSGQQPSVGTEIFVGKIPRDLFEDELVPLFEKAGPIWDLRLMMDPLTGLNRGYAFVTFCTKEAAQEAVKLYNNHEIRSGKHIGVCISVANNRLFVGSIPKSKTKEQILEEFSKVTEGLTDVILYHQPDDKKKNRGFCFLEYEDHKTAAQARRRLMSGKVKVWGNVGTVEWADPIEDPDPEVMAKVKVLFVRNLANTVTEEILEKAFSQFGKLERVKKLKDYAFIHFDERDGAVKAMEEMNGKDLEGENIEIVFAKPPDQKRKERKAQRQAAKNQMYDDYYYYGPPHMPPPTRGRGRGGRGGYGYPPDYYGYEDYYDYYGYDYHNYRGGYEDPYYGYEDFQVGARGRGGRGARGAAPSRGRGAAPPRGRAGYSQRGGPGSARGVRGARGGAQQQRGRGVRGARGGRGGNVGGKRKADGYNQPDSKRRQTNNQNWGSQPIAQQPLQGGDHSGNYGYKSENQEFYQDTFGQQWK
Experimental: as §1, §2, §3, §4, §5, §6, §7, §8, §9, §10, §11, §12, §13, §14, §15, §16, §17, §18, §19, §20, §21, §22, §23, §24, §25, §26, §27, §28

[6] = molecular target: proteins of HEK293T cells transiently overexpressing caspase-6 (Homo sapiens, UniProt P63244); settings: Comp; protein GNB2L1 P63244
Experimental: as §1, §2, §3, §4, §5, §6, §7, §8, §9, §10, §11, §12, §13, §14, §15, §16, §17, §18, §19, §20, §21, §22, §23, §24, §25, §26, §27, §28

[7] = molecular target: proteins of HEK293T cells transiently overexpressing caspase-6 (Homo sapiens, UniProt P38646); settings: Comp; protein HSPA9 P38646
Experimental: as §1, §2, §3, §4, §5, §6, §7, §8, §9, §10, §11, §12, §13, §14, §15, §16, §17, §18, §19, §20, §21, §22, §23, §24, §25, §26, §27, §28

[8] = molecular target: proteins of HEK293T cells transiently overexpressing caspase-6 (Homo sapiens, UniProt P08238); settings: Comp; protein HSP90AB1 P08238
Experimental: as §1, §2, §3, §4, §5, §6, §7, §8, §9, §10, §11, §12, §13, §14, §15, §16, §17, §18, §19, §20, §21, §22, §23, §24, §25, §26, §27, §28

[9] = molecular target: proteins of HEK293T cells transiently overexpressing caspase-6 (Homo sapiens, UniProt O14980); settings: Comp; protein XPO1 O14980
Experimental: as §1, §2, §3, §4, §5, §6, §7, §8, §9, §10, §11, §12, §13, §14, §15, §16, §17, §18, §19, §20, §21, §22, §23, §24, §25, §26, §27, §28

[10] = molecular target: T2, proteins of HEK293T cells transiently overexpressing caspase-6 (Homo sapiens, UniProt P08243)
T2 sequence (P08243 1-561): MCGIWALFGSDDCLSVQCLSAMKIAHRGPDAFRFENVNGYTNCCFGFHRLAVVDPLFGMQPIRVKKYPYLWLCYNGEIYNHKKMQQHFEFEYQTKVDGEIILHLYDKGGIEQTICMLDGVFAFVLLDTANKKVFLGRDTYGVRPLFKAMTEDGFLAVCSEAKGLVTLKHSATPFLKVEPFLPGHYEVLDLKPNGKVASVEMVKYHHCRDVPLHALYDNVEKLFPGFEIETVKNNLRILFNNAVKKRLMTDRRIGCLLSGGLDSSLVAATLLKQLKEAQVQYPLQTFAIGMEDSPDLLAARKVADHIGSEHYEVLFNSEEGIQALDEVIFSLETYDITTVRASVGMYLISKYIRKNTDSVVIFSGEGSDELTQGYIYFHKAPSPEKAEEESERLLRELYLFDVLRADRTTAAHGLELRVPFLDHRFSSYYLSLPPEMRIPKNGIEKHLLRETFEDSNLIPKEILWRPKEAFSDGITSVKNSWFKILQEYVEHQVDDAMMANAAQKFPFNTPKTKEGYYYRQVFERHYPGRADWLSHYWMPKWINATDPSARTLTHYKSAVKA
Experimental: as §1, §2, §3, §4, §5, §6, §7, §8, §9, §10, §11, §12, §13, §14, §15, §16, §17, §18, §19, §20, §21, §22, §23, §24, §25, §26, §27, §28

[11] = molecular target: T3, proteins of HEK293T cells transiently overexpressing caspase-6 (Homo sapiens, UniProt P14324)
T3 sequence (P14324 1-419): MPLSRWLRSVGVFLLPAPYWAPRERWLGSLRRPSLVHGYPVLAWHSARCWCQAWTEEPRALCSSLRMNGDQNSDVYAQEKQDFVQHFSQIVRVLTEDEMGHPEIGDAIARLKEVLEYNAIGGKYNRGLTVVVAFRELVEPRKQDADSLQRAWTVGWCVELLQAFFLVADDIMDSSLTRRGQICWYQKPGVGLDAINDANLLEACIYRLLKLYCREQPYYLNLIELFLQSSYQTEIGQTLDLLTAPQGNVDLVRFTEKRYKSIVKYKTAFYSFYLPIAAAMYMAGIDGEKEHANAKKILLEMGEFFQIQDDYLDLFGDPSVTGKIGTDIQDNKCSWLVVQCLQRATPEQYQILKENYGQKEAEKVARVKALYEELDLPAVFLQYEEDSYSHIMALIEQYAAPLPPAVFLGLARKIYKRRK
Experimental: as §1, §2, §3, §4, §5, §6, §7, §8, §9, §10, §11, §12, §13, §14, §15, §16, §17, §18, §19, §20, §21, §22, §23, §24, §25, §26, §27, §28

[12] = protein SYNCRIP (O60506), Exp Comp, analysis C6, p 0.0625, 5 peptides
[13] = protein ASNS (P08243), Exp Comp, analysis C6, p 0.1250, 4 peptides
[14] = protein FDPS (P14324), Exp Comp, analysis C6, p 0.2500, 4 peptides

Chain of proteins of HEK293T cells transiently overexpressing caspase-6 (Homo sapiens, UniProt P23526) (P23526 whole entry): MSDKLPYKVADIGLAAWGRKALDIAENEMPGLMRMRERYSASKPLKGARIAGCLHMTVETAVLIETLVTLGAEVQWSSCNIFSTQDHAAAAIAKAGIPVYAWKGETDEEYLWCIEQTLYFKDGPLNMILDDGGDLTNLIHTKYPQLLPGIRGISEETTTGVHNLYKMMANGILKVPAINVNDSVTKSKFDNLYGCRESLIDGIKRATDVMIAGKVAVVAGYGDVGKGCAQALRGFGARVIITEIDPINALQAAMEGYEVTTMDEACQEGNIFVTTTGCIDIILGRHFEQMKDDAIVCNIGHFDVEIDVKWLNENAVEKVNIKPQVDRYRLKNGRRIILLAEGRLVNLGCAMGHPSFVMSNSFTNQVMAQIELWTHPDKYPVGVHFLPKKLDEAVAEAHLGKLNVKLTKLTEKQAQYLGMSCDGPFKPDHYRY
Chain of proteins of HEK293T cells transiently overexpressing caspase-6 (Homo sapiens, UniProt P05141) (P05141 whole entry): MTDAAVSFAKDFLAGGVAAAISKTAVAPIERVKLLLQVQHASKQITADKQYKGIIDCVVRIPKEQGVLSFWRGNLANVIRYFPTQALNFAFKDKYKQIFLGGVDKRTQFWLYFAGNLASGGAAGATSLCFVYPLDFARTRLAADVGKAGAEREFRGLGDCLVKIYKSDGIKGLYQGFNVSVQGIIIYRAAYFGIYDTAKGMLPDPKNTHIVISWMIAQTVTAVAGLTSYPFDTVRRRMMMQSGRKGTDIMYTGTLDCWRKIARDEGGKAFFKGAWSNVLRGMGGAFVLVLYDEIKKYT
Chain of proteins of HEK293T cells transiently overexpressing caspase-6 (Homo sapiens, UniProt P40939) (P40939 37-763): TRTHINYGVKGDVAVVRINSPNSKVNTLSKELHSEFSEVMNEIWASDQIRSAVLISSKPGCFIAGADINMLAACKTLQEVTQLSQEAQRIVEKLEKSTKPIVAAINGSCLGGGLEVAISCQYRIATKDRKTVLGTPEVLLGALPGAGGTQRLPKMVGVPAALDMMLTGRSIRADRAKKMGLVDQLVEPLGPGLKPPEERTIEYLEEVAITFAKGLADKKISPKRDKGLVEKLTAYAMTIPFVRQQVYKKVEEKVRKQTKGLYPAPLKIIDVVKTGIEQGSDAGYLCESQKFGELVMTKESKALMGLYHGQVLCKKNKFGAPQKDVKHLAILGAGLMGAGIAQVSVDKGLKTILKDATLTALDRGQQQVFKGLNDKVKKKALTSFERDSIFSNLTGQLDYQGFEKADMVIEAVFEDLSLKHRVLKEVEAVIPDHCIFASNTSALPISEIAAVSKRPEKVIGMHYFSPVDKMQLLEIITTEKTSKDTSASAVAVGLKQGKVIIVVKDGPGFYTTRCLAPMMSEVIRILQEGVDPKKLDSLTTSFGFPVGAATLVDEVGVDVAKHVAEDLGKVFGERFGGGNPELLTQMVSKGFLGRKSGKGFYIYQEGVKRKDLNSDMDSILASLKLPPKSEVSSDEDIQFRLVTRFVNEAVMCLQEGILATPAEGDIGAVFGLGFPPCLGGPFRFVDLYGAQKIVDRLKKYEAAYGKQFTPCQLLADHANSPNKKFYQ
Chain of proteins of HEK293T cells transiently overexpressing caspase-6 (Homo sapiens, UniProt P08238) (P08238 whole entry): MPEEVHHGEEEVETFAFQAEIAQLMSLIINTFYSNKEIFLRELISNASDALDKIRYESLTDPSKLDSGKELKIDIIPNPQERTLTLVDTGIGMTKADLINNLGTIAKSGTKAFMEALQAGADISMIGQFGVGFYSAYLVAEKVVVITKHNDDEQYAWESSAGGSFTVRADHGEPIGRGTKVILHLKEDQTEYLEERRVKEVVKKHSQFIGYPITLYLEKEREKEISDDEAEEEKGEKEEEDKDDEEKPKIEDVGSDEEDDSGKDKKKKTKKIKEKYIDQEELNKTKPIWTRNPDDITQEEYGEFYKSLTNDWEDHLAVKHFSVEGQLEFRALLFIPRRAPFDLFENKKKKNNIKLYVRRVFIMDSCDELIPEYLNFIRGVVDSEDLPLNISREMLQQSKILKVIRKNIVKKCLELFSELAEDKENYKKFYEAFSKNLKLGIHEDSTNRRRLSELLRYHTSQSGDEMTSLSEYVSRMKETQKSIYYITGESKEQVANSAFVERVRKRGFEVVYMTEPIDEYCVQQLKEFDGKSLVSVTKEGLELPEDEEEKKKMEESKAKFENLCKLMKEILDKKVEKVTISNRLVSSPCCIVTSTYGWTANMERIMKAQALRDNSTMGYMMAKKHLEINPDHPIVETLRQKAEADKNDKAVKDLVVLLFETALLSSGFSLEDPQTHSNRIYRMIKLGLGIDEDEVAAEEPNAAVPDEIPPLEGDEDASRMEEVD
Chain of proteins of HEK293T cells transiently overexpressing caspase-6 (Homo sapiens, UniProt P38646) (P38646 47-679): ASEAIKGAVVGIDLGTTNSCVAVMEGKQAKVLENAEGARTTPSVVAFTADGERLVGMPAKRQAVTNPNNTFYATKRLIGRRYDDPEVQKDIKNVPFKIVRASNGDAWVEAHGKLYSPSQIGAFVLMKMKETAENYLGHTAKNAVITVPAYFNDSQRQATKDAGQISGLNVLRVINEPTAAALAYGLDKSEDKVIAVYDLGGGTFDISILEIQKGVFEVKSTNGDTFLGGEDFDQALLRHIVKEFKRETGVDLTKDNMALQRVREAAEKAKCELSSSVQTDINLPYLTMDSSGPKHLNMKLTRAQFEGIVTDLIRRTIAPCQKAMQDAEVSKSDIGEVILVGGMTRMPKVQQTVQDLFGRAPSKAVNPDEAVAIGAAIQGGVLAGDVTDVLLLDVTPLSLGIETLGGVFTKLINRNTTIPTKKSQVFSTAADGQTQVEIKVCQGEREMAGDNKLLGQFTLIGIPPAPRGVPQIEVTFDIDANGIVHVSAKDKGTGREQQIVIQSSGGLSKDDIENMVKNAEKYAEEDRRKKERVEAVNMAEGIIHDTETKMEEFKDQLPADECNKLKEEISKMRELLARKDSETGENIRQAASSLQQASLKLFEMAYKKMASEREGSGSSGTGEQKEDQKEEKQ
Chain of proteins of HEK293T cells transiently overexpressing caspase-6 (Homo sapiens, UniProt O14980) (O14980 whole entry): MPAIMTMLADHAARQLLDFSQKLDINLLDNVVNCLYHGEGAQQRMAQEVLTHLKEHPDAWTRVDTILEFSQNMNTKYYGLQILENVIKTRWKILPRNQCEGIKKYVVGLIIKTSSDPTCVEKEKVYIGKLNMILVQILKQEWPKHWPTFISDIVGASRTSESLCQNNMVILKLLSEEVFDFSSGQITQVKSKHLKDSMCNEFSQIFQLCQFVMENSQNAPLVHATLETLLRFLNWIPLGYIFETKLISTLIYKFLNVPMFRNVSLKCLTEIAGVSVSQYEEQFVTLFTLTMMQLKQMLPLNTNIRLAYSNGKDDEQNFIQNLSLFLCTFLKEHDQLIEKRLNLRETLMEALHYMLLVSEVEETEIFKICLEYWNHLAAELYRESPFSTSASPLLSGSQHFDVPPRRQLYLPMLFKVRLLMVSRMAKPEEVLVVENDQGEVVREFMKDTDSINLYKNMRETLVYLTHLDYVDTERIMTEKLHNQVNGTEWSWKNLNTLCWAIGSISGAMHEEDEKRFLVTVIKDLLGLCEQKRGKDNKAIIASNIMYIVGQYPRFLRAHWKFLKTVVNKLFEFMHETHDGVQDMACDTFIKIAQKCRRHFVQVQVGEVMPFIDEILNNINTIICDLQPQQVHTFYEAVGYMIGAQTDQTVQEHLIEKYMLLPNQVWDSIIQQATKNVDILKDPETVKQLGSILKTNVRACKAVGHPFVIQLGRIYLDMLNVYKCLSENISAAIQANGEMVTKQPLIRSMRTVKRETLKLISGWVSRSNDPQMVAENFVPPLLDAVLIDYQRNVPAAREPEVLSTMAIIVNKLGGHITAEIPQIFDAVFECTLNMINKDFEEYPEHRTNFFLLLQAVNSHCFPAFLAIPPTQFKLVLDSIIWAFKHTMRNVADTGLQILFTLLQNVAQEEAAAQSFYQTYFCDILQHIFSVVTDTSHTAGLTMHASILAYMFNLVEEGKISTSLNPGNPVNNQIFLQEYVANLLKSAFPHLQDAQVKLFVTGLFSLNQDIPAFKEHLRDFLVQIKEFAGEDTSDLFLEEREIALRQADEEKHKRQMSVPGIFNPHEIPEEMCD

Structure (SMILES): C=CS(=O)(=O)N1C[C@H](C(=O)Nc2ccc(OC(F)(F)F)cc2)C[C@@H](c2ccccc2)C1 [3a]
- enrich.exp.med [1]: 0.8074
- enrich.exp.med [2]: 0.6961
- enrich.exp.med [3]: 0.6753
- enrich.exp.med [4]: 0.6101
- enrich.exp.med ([5]; Comp, protein SYNCRIP O60506): 1.48
- enrich.exp.med.lin [5, 12]: 2.7903
- enrich.exp.med.log2 [5, 12]: 1.48
- enrich.exp.med [6]: 0.7266
- enrich.exp.med [7]: 0.6522
- enrich.exp.med [8]: 0.6024
- enrich.exp.med [9]: 0.6797
- enrich.exp.med ([10]; Comp, protein ASNS P08243): 1.12
- enrich.exp.med.lin [10, 13]: 2.174
- enrich.exp.med.log2 [10, 13]: 1.12
- enrich.exp.med ([11]; Comp, protein FDPS P14324): 1.087
- enrich.exp.med.lin [11, 14]: 2.124
- enrich.exp.med.log2 [11, 14]: 1.087
